The results in this text go back to ChEMBL document CHEMBL5357036, “Latest developments in coumarin-based anticancer agents: mechanism of action and structure-activity relationship studies” (RSC Med Chem, 2024).

Data set [1] concerns HeLa. As to the kind of experiment: Antitumor activity against human HeLa cells assessed as inhibition of cell growth by MTT assay. It counts as functional, cell-based.
Data set [2] can be described thus: Cytotoxicity against green monkey COS-7 cells. The note with it: green monkey (Chlorocebus aethiops). It counts as toxicity, cell-based.
For data set [3], the system named is MCF7. Nature of the data set: Cytotoxicity against human MCF7 cells assessed as reduction in cell viability incubated for 48 hrs by MTT assay. It counts as functional, cell-based. The note with it: MCF7, 48 h.
The target in data set [4] is Cyclin-dependent kinase inhibitor 1 (p21) (human) (UniProt P38936). As to the kind of experiment: Upregulation of p21 gene expression in human HeLa cells assessed fold increase by RT-PCR analysis.
Another data set concerns SW-620. Nature of the data set: Anticancer activity against human SW620 cells assessed as reduction in cell viability measured after 72 hrs by MTT assay. It counts as functional, cell-based. The note with it: SW-620, 72 h.
For data set [5], the system named is HCT-116. As to the kind of experiment: Anticancer activity against human HCT-116 cells assessed as reduction in cell viability measured after 72 hrs by MTT assay. The note with it: HCT-116, 72 h. It counts as functional, cell-based.
The subject of data set [6] is MDA-MB-231. Nature of the data set: Anticancer activity against human MDA-MB-231 cells assessed as reduction in cell viability measured after 72 hrs by MTT assay. It counts as functional, cell-based. The note with it: MDA-MB-231, 72 h.
Data set [7] has as its system DU-145. As to the kind of experiment: Anticancer activity against human DU-145 cells assessed as cell growth inhibition. It counts as functional, cell-based.
Data set [8] can be described thus: Anticancer activity against human SK-MEL-128 cells assessed as cell growth inhibition. It counts as functional, cell-based.
Another data set deals with HepG2. Nature of the data set: Anticancer activity against human HepG2 cells assessed as reduction in cell viability. It counts as functional, cell-based.
Data set [9] relates to MCF7. Nature of the data set: Anticancer activity against human MCF7 cells assessed as reduction in cell viability measured after 72 hrs by MTT assay. It counts as functional, cell-based. Particulars: MCF7, 72 h.
Data set [10] has as its system HeLa. Nature of the data set: Anticancer activity against human HeLa cells assessed as reduction in cell viability measured after 72 hrs by MTT assay. It counts as functional, cell-based.
The test system of the next data set is Hs-578T. As to the kind of experiment: Anticancer activity against human Hs-578T cells assessed as cell growth inhibition by MTT assay. It counts as functional, cell-based.
The subject of another data set is HCC1937. Nature of the data set: Anticancer activity against human HCC1937 cells assessed as reduction in cell growth incubated for 48 hrs by MTT assay. It counts as functional, cell-based. The note with it: HCC1937, 48 h.
Another data set deals with MDA-MB-468. Nature of the data set: Anticancer activity against human MDA-MB-468 cells assessed as reduction in cell viability incubated for 48 hrs by MTT assay. It counts as functional, cell-based. The note with it: MDA-MB-468, 48 h.
Data set [11] relates to MDA-MB-231. As to the kind of experiment: Anticancer activity against human MDA-MB-231 cells assessed as reduction in cell viability incubated for 48 hrs by MTT assay. It counts as functional, cell-based. The note with it: MDA-MB-231, 48 h.
Data set [12] relates to A549. As to the kind of experiment: Antiproliferative activity against human A549 cells assessed as cell growth inhibition measured after 48 hrs by MTT assay. The note with it: A549, 48 h. It counts as functional, cell-based.
The test system of a further data set is HT-29. Nature of the data set: Antiproliferative activity against human HT-29 cells assessed as cell growth inhibition measured after 48 hrs by MTT assay. Particulars: HT-29, 48 h. It counts as functional, cell-based.
Data set [13] relates to MDA-MB-231. As to the kind of experiment: Cytotoxicity against human MDA-MB-231 cells assessed as cell growth inhibition incubated for 72 hrs by MTT colorimetric assay. It counts as functional, cell-based. The note with it: MDA-MB-231, 72 h.
In another data set the test system is K562. Nature of the data set: Cytotoxicity against human K562 cells assessed as cell growth inhibition incubated for 72 hrs by MTT colorimetric assay. It counts as functional, cell-based. Particulars: K562, 72 h.
For data set [14], the system named is A549. Nature of the data set: Cytotoxicity against human A549 cells assessed as cell growth inhibition incubated for 72 hrs by MTT colorimetric assay. It counts as functional, cell-based. Particulars: A549, 72 h.
Data set [15] deals with HeLa. As to the kind of experiment: Cytotoxicity against human HeLa cells assessed as cell growth inhibition incubated for 72 hrs by MTT colorimetric assay. It counts as functional, cell-based.
The subject of data set [16] is MDA-MB-231. Nature of the data set: Cytotoxicity against human MDA-MB-231 cells assessed as cell growth inhibition by SRB assay. It counts as functional, cell-based.
The subject of data set [17] is MCF7. As to the kind of experiment: Cytotoxicity against human MCF7 cells assessed as inhibition of cell growth by resazurin microplate assay. It counts as functional, cell-based.
Data set [18] concerns HCT-116. As to the kind of experiment: Cytotoxicity against human HCT-116 cells assessed as reduction in cell growth measured after 48 hrs by MTT assay. It counts as functional, cell-based. The note with it: HCT-116, 48 h.
Data set [19] relates to A549. As to the kind of experiment: Cytotoxicity against human A549 cells assessed as reduction in cell growth by MTT assay. It counts as functional, cell-based.
For data set [20], the system named is DU-145. Nature of the data set: Anticancer activity against human DU-145 cells assessed as cell growth inhibition by MTT assay. It counts as functional, cell-based.
The subject of data set [21] is MCF7. Nature of the data set: Cytotoxicity against human MCF7 cells assessed as reduction in cell growth measured after 48 hrs by MTT assay. It counts as functional, cell-based. The note with it: MCF7, 48 h.
The subject of data set [22] is A549. Nature of the data set: Cytotoxicity against human A549 cells assessed as reduction in cell growth measured after 48 hrs by MTT assay. It counts as functional, cell-based. The note with it: A549, 48 h.
Data set [23] concerns HeLa. Nature of the data set: Cytotoxicity against human HeLa cells assessed as reduction in cell growth measured after 48 hrs by MTT assay. It counts as functional, cell-based.
Data set [24] concerns MDA-MB-231. As to the kind of experiment: Antiproliferative activity against human MDA-MB-231 cells assessed as cell growth inhibition measured after 48 hrs by MTT assay. The note with it: MDA-MB-231, 48 h. It counts as functional, cell-based.
The subject of the next data set is BT-20. As to the kind of experiment: Anticancer activity against human BT-20 cells assessed as cell growth inhibition. It counts as functional, cell-based.

≈ marks a conversion by molar mass, not a printed value.

Regarding `O=c1oc2ccccc2cc1-c1csc(N/N=C/c2c3ccccc3c(Cl)c3ccccc23)n1`, the IC50 with HeLa [1] turned out to be 1.29 µM; in data set [2], 1.66 µM.

Take `O=c1oc2ccccc2c2c1nc(-c1ccccn1)c1occc12`: the IC50 in the data set with MCF7 [3] is 8 µM.

On to `CCOC(=O)c1sc(N/N=C(\C)c2cc3ccccc3oc2=O)nc1C`, for which, in [4], the “fold change (FC)” value came to 2.3.

`O=C(OCC#CCOc1no[n+]([O-])c1S(=O)(=O)c1ccccc1)c1cc2ccccc2oc1=O`: the IC50 was determined as 1.86 µM in the data set with SW-620 and 3.46 µM with HCT-116 [5].

Consider `COC(=O)c1cc2cc(-c3nc4cc(C)ccn4c3NC(C)(C)C)cc(C(C)C)c2oc1=O`, for which, in the data set on MDA-MB-231 [6], the IC50 is 14.1 µM.

With `Nn1c(Cc2ccc(Cl)c(Cl)c2)nn(CC(=O)NNC(=O)c2cc3cc(Cl)ccc3oc2=O)c1=O`, the IC50 in the data set on DU-145 [7] was determined as 3.7 µg/mL (≈ 6.88 µM); in data set [8] it was 12.3 µg/mL (≈ 22.9 µM).

`C/C(=N\Nc1ncc(C(=O)c2cc3ccccc3oc2=O)s1)c1ccc(C)cc1`: the concentration giving a half-maximal response (EC50) in the data set with HepG2 came out at 3.7 µM.

For the molecule `O=C(NCCOCc1no[n+]([O-])c1S(=O)(=O)c1ccccc1)c1cc2ccccc2oc1=O`, the IC50 in the data set with MCF7 [9] was 0.61 µM; in the data set with HeLa [10] it was 0.88 µM.

For the molecule `O=c1oc2ccccc2c(O)c1C(c1ccc(O)cc1O)c1c(O)c2ccccc2oc1=O`, the IC50 is 25.7 µM in the data set with Hs-578T, 20.2 µM with HCC1937, 15.2 µM in the data set with MDA-MB-468 and 25.3 µM in the data set on MDA-MB-231 [11].

As for `O=c1oc2ccccc2cc1-c1nc(Nc2c3ccccc3nc3ccc(F)cc23)cs1`, the results for the IC50 in the data set with A549 [12] and in the data set on HT-29 were 5.18 µM and 23.1 µM, respectively.

Turning to `COc1ccc(-n2nc(C)n(-n3c(-c4cc5ccccc5oc4=O)cs/c3=N\c3ccc(Cl)cc3)c2=O)cc1`, the IC50 came to 0.16 µM in the data set with MDA-MB-231 [13]; 0.31 µM in the data set with K562; 0.17 µM in the data set with A549 [14]; 0.25 µM in the data set on HeLa [15]; 0.16 µM with MDA-MB-231 [16].

`COc1ccc(-c2cc(-c3cc4ccccc4oc3=O)nc(N)c2C#N)cc1`: the IC50 came out at 14.1 µM in the data set with MCF7 [17] and 9.9 µM with HCT-116 [18].

On to `Cc1c(Cc2ccc(NC(=O)Nc3ccccc3Cl)nc2)c(=O)oc2cc(O)c(C(C)(C)C)cc12`, for which the IC50 in the data set with A549 [19] turned out to be 4.38 µM.

`CC(C)(C)c1cc(C(C)(C)C)c2oc(=O)c(-c3csc(-n4nc(-c5ccccc5)cc4N)n3)cc2c1`: the IC50 in the data set with DU-145 [20] was 7 µM.

For `COc1ccc2oc(=O)c(/C=C3\SC(=O)N(C(=O)c4ccc(Cl)cc4)C3=O)cc2c1`, the IC50 in the data set on MCF7 [21], in the data set with A549 [22] and in the data set with HeLa [23] was 0.95 µM in each case.

With `COc1ccc2nc3ccccc3c(Nc3csc(-c4cc5ccccc5oc4=O)n3)c2c1`, the IC50 in the data set on MDA-MB-231 [24] was 8.03 µM.

For the molecule `Nn1c(Cc2ccccc2Br)nn(CC(=O)NNC(=O)c2cc3cc(Cl)cc(Cl)c3oc2=O)c1=O`, in the data set with BT-20, the IC50 worked out at 6.4 µg/mL (≈ 11 µM).
